According to publication PMC10296591, “Potent GST Ketosteroid Isomerase Activity Relevant to Ecdysteroidogenesis in the Malaria Vector Anopheles gambiae” (Biomolecules, 2023):

Legend:
Assay type in all cases: biochemical
[1] = target: T1, Nobo (Anopheles gambiae, UniProt Q8WQJ5); assay: steady-state kinetics of double-bond isomerization by purified enzyme (kcat/Km)
T1 construct: gene GSTe8
T1 sequence (Q8WQJ5 1-217): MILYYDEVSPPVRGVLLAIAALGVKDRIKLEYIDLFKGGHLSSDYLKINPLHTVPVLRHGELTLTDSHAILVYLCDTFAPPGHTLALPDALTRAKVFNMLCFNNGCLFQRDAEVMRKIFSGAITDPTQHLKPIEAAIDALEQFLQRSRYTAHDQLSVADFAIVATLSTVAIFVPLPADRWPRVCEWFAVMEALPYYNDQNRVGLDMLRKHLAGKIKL

[2] = target: T1, Nobo; assay: spectrophotometric specific activity of purified enzyme
[3] = target: T2, Nobo D111N (Anopheles gambiae, UniProt Q8WQJ5, D111N); assay: spectrophotometric inhibition assay of purified mutant enzyme with DCNB and glutathione
T2 construct: gene GSTe8; N-terminal hexahistidine tag

[4] = target: T1, Nobo; assay: spectrophotometric inhibition assay of purified enzyme with DCNB and glutathione

Row | SMILES | specific activity [2] [μmol/min per mg] | other results
1 | C[C@]12CCC(=O)CC1=CC[C@@H]1[C@@H]2CC[C@]2(C)C(=O)CC[C@@H]12 [5-AD, 5-androsten-3,17-dione] | – | steady-state kinetics of double-bond isomerization by purified enzyme (kcat/Km) [1]: (6.9 ± 0.3) × 10^6 M^−1s^−1
2 | O=[N+]([O-])c1ccc(Cl)c([N+](=O)[O-])c1 [CDNB, 1-chloro-2,4-dinitribenzene] | 24.7 ± 3.4 | –
3 | O=[N+]([O-])c1ccc(Cl)c(Cl)c1 [DCNB, 1,2-dichloro-4-nitrobenzene] | 16.4 ± 1.9 | –
4 | C[C@]12CC[C@@H]3c4ccc(O)cc4CC[C@H]3[C@@H]1CC[C@@H]2O [17β-estradiol] | – | IC50 [3]: 15.5 ± 6 µM; IC50 [4]: 0.17 ± 0.03 µM
5 | CC(C)(OO)c1ccccc1 [CuOOH, cumene hydroperoxide] | 5.0 ± 0.5 | –
6 | S=C=NCCc1ccccc1 [PEITC, phenethyl isothiocyanate] | 0.4 ± 0.1 | –
7 | C=CCN=C=S [AITC, allyl isothiocyanate] | 3.3 ± 0.4 | –
